US11629192B2, “Methods and pharmaceutical compositions for the treatment of diseases mediated by the NRP-1/OBR complex signaling pathway” (INSERM (Institut National de la Sante et de la Recherche …, priority 2014, dated 2023)
“Also recorded” adds a separate entry of the source.

How the values were obtained:
[1] = test system: MDA-MB-231-shNRP-1 xenografts; assay: MDA-MB-231 xenografts in Nude mice; assay type: in vivo; conditions: Leptin treatment, KL1 staining
Source text: (§1) First MBA-MB-231 and T47D breast cancer cells line were selected for their high and undetectable NRP-1 expression respectively and the expression of Leptin receptor (OBR). In order to investigate NRP-1 and Leptin association in breast cancer cell line migration, we proceeded to NRP-1 expression silencing in MDA-MB-231 using either siRNA or shRNA approaches or NRP-1 overexpression in T47D. […] In contrast Leptin induced MDA-MB-231 migration that was decreased in siNRP-1 conditions. The in vitro data were confirmed in vivo by MDA-MB-231 and T47D xenografts in Nude mice. Modulation of NRP-1 expression either by shRNA silencing in MDA-MB-231 or by overexpression in T47D induced an increase of proliferation and a decrease of lymph node infiltration by MDA-MB-231-shNRP-1 and a decrease of proliferation and an increase of lymph node infiltration by T47D-NRP-1-RFP in mice treated with Leptin.
This need to be more investigated and may be a new strategy for combined anti-Leptin and anti-VEGF therapies in breast cancer. […] In vitro and in vivo data are a direct evidence of NRP-1 and Leptin association in breast cancer cell line migration. This implication of Leptin and NRP-1 are in agreement of published data but with no association between Leptin and NRP-1.

P-NRP-1 = assay: NRP-1 (P-NRP-1) and OBR phosphorylation in MDA-MB-231, immunostaining / coimmunoprecipitation; assay type: cell-based, human; conditions: MDA-MB-231 serum starved, Leptin (10 nM)
Source text: Beside the modulation of the NRP-1/OBR complex formation by Leptin and OBR phosphorylation, we postulated a possible phosphorylation of NRP-1 that can regulate the translocation of the complex to the nucleus. Two putative phosphorylation sites of NRP-1 have been reported with no more investigation. The first one at the extracellular B domain as reported by Shintani et al in 2009 with no antibody available and the second one at the Threonine 916 located in the cytoplasmic domain as it was reported by Kyle et al in 2011. Since a specific antibody against P-NRP-1 at the T916 was available, we investigated by coimmunoprecipitation the detection of P-NRP-1 in MDA-MB-231 after serum starvation and stimulation by Leptin (10 nM). […] To confirm this phosphorylation state, we investigated the possible implication of a Serine/threonine Kinase CK2 using one of its first chemical inhibitor (DRB). In serum starved condition, P-NRP-1 was detected as polarized spot in the cytoplasm and the nucleus of MDA-MB-231. […] The inhibition was specific since, in stimulated condition combined with DMSO at the same dilution of DRB, we were able to observe a diffuse nuclear P-NRP-1 staining.

[2] = test system: T47D-NRP-1-RFP xenografts; assay: Transcriptome of T47D-NRP-1-RFP xenografts treated or not with Leptin; assay type: in vivo, Nude mice; conditions: Leptin treated vs not treated T47D-NRP-1-RFP xenografts
Source text: Although the Chip-Seq was realized on MDA-MB-231, we opted to realize a transcriptome of T47D overexpressing NRP-1-RFP xenografts compared to T47D-wt and T47D-RFP treated or not with Leptin regarding to the lymph node infiltration induced by the NRP-1 overexpression and its increase by Leptin treatment. To determine any direct association of NRP-1 in gene expression, we realize first a global analysis of transcriptome of T47D-NRP-1 xenografts treated and not treated with Leptin (n=8) compared to T47D-wt and T47D-RFP xenografts treated and not treated with Leptin (n=8). […] The analysis of gene expression in Leptin treated T47D-NRP-1-RFP compared to no treated xenografts, highlighted 66 genes with 31 genes enriched in the Chip-Seq of MDA-MB-231 and that were not detected in T47D-wt and T47D-RFP treated or not with Leptin. Only 4 genes enriched in the Chip-Seq contained peaks associated to transcription factor binding site such as FUS (fused in sarcoma, fold increase 1.79; p=0.045) for Pol2 and C12orf45 (chromosome 12 open reading frame, fold increase 1.29; p=0.03) for CTCF. […] Since Plasminogen Activator Inhibitor 1 (PAI.1) related to SERPINE1 gene has been associated to breast cancer invasion and metastasis, we evaluated PAI.1 expression by immunostaining in T47D-NRP-1-RFP xenografts compared to T47D-wt and T47D-RFP.

NRP-1 = NRP-1 (Homo sapiens, UniProt O14786); assay: Direct binding of Leptin to NRP-1 by HTRF and confocal microscopy
Source text: NRP-1 has been reported to bind directly VEGF increasing thus the binding affinity of VEGF to its receptor VEGFR2 […] and Sema3A enabling thus its binding to Plexin 3A. Our study led us to highlight a new mechanism of NRP-1 function. […] NRP-1 repression by siNRP-1 decreased the BRET signal and OBR oligomerization.

[3] = test system: OBR and STAT3 phosphorylation; assay: OBR and STAT3 phosphorylation in cytoplasmic and nuclear fractions; assay type: cell-based; conditions: Leptin stimulation
Source text: Since both NRP-1/OBR complex formation and NRP-1 phosphorylation were abolished by CK2 inhibition, we supposed that OBR signaling pathway could be also affected by CK2 inhibition.

MDA-MB-231 cells = assay: MDA-MB-231 cell migration / transmigration through insert; assay type: cell-based, human
Source text: (§2) FIG. 5. NRP-1, OBR and leptin interactions confirmation using a Bio-Layer Interferometry (BLI) technology (fortebio.com/bli-technology.html): A-Leptin (OB) interaction to OBR is used as a positive control. Human neuropilin-1 (hNRP-1) interact with human OBR with a high affinity and specifically with human leptin (hOB) but not with murine leptin (mOB). VEGF165 binding to hNRP-1 is used as a positive control. B-Leptin and Avastin association increases MDA-MB231 cells transmigration through […] pore Insert. Avastin treatment may prevent a negative feedback control by VEGF of the pro-angiogenic signaling pathway of Leptin. VEGF binds to OBR which confirms our hypothesis that should be more investigated.
as §1
Leptin induced in vitro MDA-MB-231 migration that was decreased by NRP-1 repression using siRNA. Lel Xu et al have reported a direct evidence of NRP-1 up-regulation in tumors treated by anti-VEGF (Bevacizumab). […] This observation can be a first explanation of breast cancer therapy failure (increase of Progression survival while decreasing overall survival) by Bevacizumad and that was revoked by the FDA (Food and Drugs Administration, US).

[4] = molecular target: Human neuropilin-1 (hNRP-1) (Homo sapiens, UniProt O14786); assay: Bio-Layer Interferometry (BLI) interaction with hNRP-1; assay type: binding
Source text: as §2

direct binding to NRP-1 (NRP-1): unable to bind directly
interaction with hNRP-1 [4]: interact
Substance: Leptin: small non glycosylated protein, ligand of OBR
lymph node infiltration by MDA-MB-231-shNRP-1 [1]: did not increase
NRP-1 phosphorylation (T916) (P-NRP-1): phosphorylated
C12orf45 gene expression, fold increase ([2]; p=0.03): 1.29 fold
FUS gene expression, fold increase ([2]; p=0.045): 1.79 fold
OBR and STAT3 phosphorylation [3]: increase
MDA-MB-231 migration induced by Bevacizumab, effect of Leptin (MDA-MB-231 cells; 10 μg/ml of Bevacizumab plus Leptin): increased
MDA-MB-231 migration (MDA-MB-231 cells; in vitro, Leptin alone): increased; also recorded: induced
